Assay results reported in ChEMBL document CHEMBL1130952, “NMR and topochemical studies of peptidomimetic HIV-I protease inhibitors containing a cis-epoxide amide isostere” (Bioorg Med Chem Lett, 1998).

Tests used:
[1] = target: Human immunodeficiency virus type 1 protease (Human immunodeficiency virus 1) (UniProt Q72874); experiment: Second order rate constant was determined for the irreversible inhibition of HIV-1 protease; value ranges from 10e8- 10e10
[2] = target: Human immunodeficiency virus type 1 protease (Human immunodeficiency virus 1, UniProt Q72874); experiment: Compound was tested for 50% irreversible inhibition of HIV-1 protease; value ranges from 10-50

| SMILES | K inact/Ki [1] [M⁻¹ s⁻¹] | IC50 [2] [nM] |
| --- | --- | --- |
| CONC(=O)[C@H](NC(=O)C[C@@H]1O[C@@H]1[C@H](Cc1ccccc1)NC(=O)[C@H](CC(N)=O)NC(=O)c1ccc2ccccc2n1)C(C)C | 1.67e+06 | 10 |
| CC(C)[C@@H](NC(=O)C[C@@H]1O[C@@H]1[C@H](Cc1ccccc1)NC(=O)[C@H](CC(N)=O)NC(=O)c1ccc2ccccc2n1)c1ccccc1 | 1.67e+06 | 10 |
| CC(C)[C@H](Cc1ccccc1)NC(=O)C[C@@H]1O[C@@H]1[C@H](Cc1ccccc1)NC(=O)[C@H](CC(N)=O)NC(=O)c1ccc2ccccc2n1 | 1.67e+06 | 10 |
